# Test results published in PubChem BioAssay AID330 (DTP/NCI, 2004).
# “And” between values parts separate entries of the source, which are not always exact repeats. Identical values can stand only once. Inconclusive results and toxic doses are left out.
# Test system: P388 leukemia ip, CD2F1 mice, survival T/C
# Assay: NCI In Vivo Anticancer Drug Screen. Data for tumor model P388 Leukemia (intraperitoneal) in CD2F1 (CDF1) mice
# Settings: endpoint: median survival time, higher = longer survival
# Summary of the method: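 Mice carrying the transplanted tumor received test compound or vehicle. Survival was recorded in each group, and the value is the treated-group measurement divided by that of the vehicle-treated control group.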
# [1] = dose: 60.0 mg/kg/injection, schedule: Q01DX005 (ip), vehicle: Klucel (hydroxypropylcellulose) (HPC)
# [2] = dose: 120.0 mg/kg/injection, schedule: Q01DX005 (ip), vehicle: Klucel (hydroxypropylcellulose) (HPC)
# [3] = dose: 240.0 mg/kg/injection, schedule: Q01DX005 (ip), vehicle: Klucel (hydroxypropylcellulose) (HPC)
# [4] = dose: 12.5 mg/kg/injection, schedule: Q01DX005 (ip), vehicle: Klucel (hydroxypropylcellulose) (HPC)
# [5] = dose: 60.0 mg/kg/injection, schedule: Q01DX005 (ip), vehicle: saline with Tween-80
# [6] = dose: 120.0 mg/kg/injection, schedule: Q01DX005 (ip), vehicle: saline with Tween-80
# [7] = dose: 240.0 mg/kg/injection, schedule: Q01DX005 (ip), vehicle: saline with Tween-80
# [8] = dose: 50.0 mg/kg/injection, schedule: Q01DX005 (ip), vehicle: saline with Tween-80
# [9] = dose: 100.0 mg/kg/injection, schedule: Q01DX005 (ip), vehicle: saline with Tween-80
# [10] = dose: 200.0 mg/kg/injection, schedule: Q01DX005 (ip), vehicle: saline with Tween-80
compound,measurement,setting,value
C[CH2][Sn]([CH2]C)([S]CCS(=O)(=O)O)[S]CCS(=O)(=O)O,T/C,"dose: 0.93 mg/kg/injection, schedule: Q01DX005 (ip), vehicle: saline",95 % of control
same,T/C,"dose: 1.87 mg/kg/injection, schedule: Q01DX005 (ip), vehicle: saline",95 % of control
CC1=C(S(=O)(=O)c2ccccc2)C(c2ccccc2)N(C)O1 (configuration not stated),T/C,[1],102 % of control
same,T/C,[2],103 % of control
same,T/C,[3],98 % of control
CN(C)C=Nc1ccc(Cl)cc1,T/C,"dose: 25.0 mg/kg/injection, schedule: Q01DX009 (ip), vehicle: saline with Tween-80",99 % of control
same,T/C,"dose: 50.0 mg/kg/injection, schedule: Q01DX009 (ip), vehicle: saline with Tween-80",105 % of control
[Cl][Sn]([CH2][Sn]([Cl])([c]1ccccc1)[c]1ccccc1)([c]1ccccc1)[c]1ccccc1,T/C,"dose: 0.39 mg/kg/injection, schedule: Q01DX005 (ip), vehicle: Klucel (hydroxypropylcellulose) (HPC)",103 % of control
same,T/C,"dose: 0.79 mg/kg/injection, schedule: Q01DX005 (ip), vehicle: Klucel (hydroxypropylcellulose) (HPC)",104 % of control
same,T/C,"dose: 1.56 mg/kg/injection, schedule: Q01DX005 (ip), vehicle: Klucel (hydroxypropylcellulose) (HPC)",106 % of control
same,T/C,"dose: 3.12 mg/kg/injection, schedule: Q01DX005 (ip), vehicle: Klucel (hydroxypropylcellulose) (HPC)",97 % of control
same,T/C,[4],116 % of control
O=Cc1cc2c(Cl)nccc2o1,T/C,[1],105 % of control
same,T/C,[2],102 % of control
same,T/C,[3],104 % of control
COc1cc([C@H]2c3c(cc(OC)c(OC)c3OC)CC3COC(=O)[C@@H]32)cc2c1OCO2 (some centres not stated),T/C,[5],98 % of control
same,T/C,[6],92 % of control
same,T/C,[7],90 % of control
C1=CC2OC1c1cc3c(cc12)[C@@H]1C=C[C@@H]3O1,T/C,[8],96 % of control
same,T/C,[9],105 % of control
same,T/C,[10],91 % of control
COCNC(=S)c1cc(C(=S)NCOC)c(C(=O)NC(C)(C)C)nc1C(=O)NC(C)(C)C,T/C,"dose: 100.0 mg/kg/injection, schedule: Q04DX002 (ip), vehicle: saline with Tween-80",92 % of control
same,T/C,"dose: 200.0 mg/kg/injection, schedule: Q04DX002 (ip), vehicle: saline with Tween-80",98 % of control
same,T/C,"dose: 400.0 mg/kg/injection, schedule: Q04DX002 (ip), vehicle: saline with Tween-80",93 % of control
CN(C)C1C2(C)CCC(C2)C1(C)C (configuration not stated),T/C,[8],103 % of control
same,T/C,[9],102 % of control
O=c1oc2cc(O)ccc2c2oc3cc(O)ccc3c12,T/C,"dose: 50.0 mg/kg/injection, schedule: Q04DX003 (ip), vehicle: saline with Tween-80",100 % of control
same,T/C,"dose: 100.0 mg/kg/injection, schedule: Q04DX003 (ip), vehicle: saline with Tween-80",94 % of control
same,T/C,"dose: 200.0 mg/kg/injection, schedule: Q04DX003 (ip), vehicle: saline with Tween-80",93 % of control
same,T/C,"dose: 400.0 mg/kg/injection, schedule: Q04DX003 (ip), vehicle: saline with Tween-80",93 % of control
COc1cccc2c1C(=O)c1c(O)c3c(c(O)c1C2=O)C[C@@](O)(C(O)CO)C[C@@H]3OC1CC(N(Cc2ccccc2)Cc2ccccc2)C(O)C(C)O1 (some centres not stated),T/C,"dose: 6.25 mg/kg/injection, schedule: Q04DX003 (ip), vehicle: water",100 % of control
same,T/C,"dose: 12.5 mg/kg/injection, schedule: Q04DX003 (ip), vehicle: water",109 % of control
same,T/C,"dose: 25.0 mg/kg/injection, schedule: Q04DX003 (ip), vehicle: water",100 % of control
same,T/C,"dose: 50.0 mg/kg/injection, schedule: Q04DX003 (ip), vehicle: water",170 % of control
same,T/C,"dose: 100.0 mg/kg/injection, schedule: Q04DX003 (ip), vehicle: water",209 % of control and 212 % of control
COc1ccc2c(N/N=C/c3ccc4c(c3)OCO4)cc(C)nc2c1,T/C,"dose: 1.5 mg/kg/injection, schedule: Q01DX005 (ip), vehicle: Klucel (hydroxypropylcellulose) (HPC)",95 % of control
same,T/C,"dose: 3.0 mg/kg/injection, schedule: Q01DX005 (ip), vehicle: Klucel (hydroxypropylcellulose) (HPC)",93 % of control
same,T/C,"dose: 6.0 mg/kg/injection, schedule: Q01DX005 (ip), vehicle: Klucel (hydroxypropylcellulose) (HPC)",95 % of control
same,T/C,"dose: 6.25 mg/kg/injection, schedule: Q01DX005 (ip), vehicle: Klucel (hydroxypropylcellulose) (HPC)",88 % of control
same,T/C,[4],107 % of control
same,T/C,"dose: 25.0 mg/kg/injection, schedule: Q01DX005 (ip), vehicle: Klucel (hydroxypropylcellulose) (HPC)",88 % of control
N/C(=N\OC(=O)NC(Cl)=C(Cl)Cl)c1cc(C(F)(F)F)cc(C(F)(F)F)c1,T/C,[8],102 % of control
same,T/C,[9],102 % of control
same,T/C,[10],100 % of control
COC1=CC23CC(CC(c4cc(OC)c(OC)c(OC)c4)C2C)OC3=CC1=O (configuration not stated),T/C,"dose: 4.38 mg/kg/injection, schedule: Q01DX005 (ip), vehicle: Klucel (hydroxypropylcellulose) (HPC)",96 % of control
same,T/C,"dose: 8.75 mg/kg/injection, schedule: Q01DX005 (ip), vehicle: Klucel (hydroxypropylcellulose) (HPC)",102 % of control
same,T/C,"dose: 17.5 mg/kg/injection, schedule: Q01DX005 (ip), vehicle: Klucel (hydroxypropylcellulose) (HPC)",106 % of control
C[C@@H]1CCC2=C(CO)C(=O)O[C@@]23CC(C)(C)[C@H]2O[C@]123,T/C,"dose: 2.25 mg/kg/injection, schedule: Q01DX005 (ip), vehicle: Klucel (hydroxypropylcellulose) (HPC)",98 % of control
same,T/C,"dose: 4.5 mg/kg/injection, schedule: Q01DX005 (ip), vehicle: Klucel (hydroxypropylcellulose) (HPC)",97 % of control
same,T/C,"dose: 9.0 mg/kg/injection, schedule: Q01DX005 (ip), vehicle: Klucel (hydroxypropylcellulose) (HPC)",98 % of control
same,T/C,"dose: 18.0 mg/kg/injection, schedule: Q01DX005 (ip), vehicle: Klucel (hydroxypropylcellulose) (HPC)",100 % of control
same,T/C,"dose: 36.0 mg/kg/injection, schedule: Q01DX005 (ip), vehicle: Klucel (hydroxypropylcellulose) (HPC)",103 % of control
COc1cccc2c1C(=O)c1c(O)c3c(c(O)c1C2=O)C[C@@](O)(C(=O)CN1CCOCC1)C[C@@H]3OC1CC(N)C(O)C(C)O1 (some centres not stated),T/C,"dose: 1.3 mg/kg/injection, schedule: Q01DX001 (ip), vehicle: water",116 % of control
same,T/C,"dose: 1.56 mg/kg/injection, schedule: Q01DX009 (ip), vehicle: water",103 % of control
same,T/C,"dose: 1.8 mg/kg/injection, schedule: Q01DX001 (ip), vehicle: water",114 % of control
same,T/C,"dose: 2.4 mg/kg/injection, schedule: Q01DX001 (ip), vehicle: water",116 % of control
same,T/C,"dose: 3.13 mg/kg/injection, schedule: Q01DX009 (ip), vehicle: water",115 % of control
same,T/C,"dose: 3.2 mg/kg/injection, schedule: Q01DX001 (ip), vehicle: water",119 % of control
same,T/C,"dose: 4.2 mg/kg/injection, schedule: Q01DX001 (ip), vehicle: water",119 % of control
same,T/C,"dose: 5.56 mg/kg/injection, schedule: Q01DX009 (ip), vehicle: water",156 % of control
same,T/C,"dose: 8.33 mg/kg/injection, schedule: Q01DX009 (ip), vehicle: water",162 % of control
same,T/C,"dose: 10.0 mg/kg/injection, schedule: Q01DX001 (ip), vehicle: water",119 % of control
same,T/C,"dose: 18.8 mg/kg/injection, schedule: Q01DX009 (ip), vehicle: water",153 % of control
same,T/C,"dose: 50.0 mg/kg/injection, schedule: Q01DX001 (ip), vehicle: water",162 % of control
same,T/C,"dose: 100.0 mg/kg/injection, schedule: Q01DX001 (ip), vehicle: water",174 % of control
CSc1nc(N)c(-c2ccc([N+](=O)[O-])cc2)s1,T/C,[5],97 % of control
same,T/C,[6],97 % of control
same,T/C,[7],97 % of control
C/C=c1/[nH]c(=O)/c(=C\c2ccc(Cl)cc2)[nH]c1=O,T/C,"dose: 50.0 mg/kg/injection, schedule: Q01DX009 (ip), vehicle: Klucel (hydroxypropylcellulose) (HPC)",91 % of control
same,T/C,"dose: 100.0 mg/kg/injection, schedule: Q01DX009 (ip), vehicle: Klucel (hydroxypropylcellulose) (HPC)",93 % of control
same,T/C,"dose: 200.0 mg/kg/injection, schedule: Q01DX009 (ip), vehicle: Klucel (hydroxypropylcellulose) (HPC)",94 % of control
CN(O)C1(/C(N)=N/O)C(C2COC(C)(C)O2)OC2OC(C)(C)OC21 (configuration not stated),T/C,"dose: 100.0 mg/kg/injection, schedule: Q04DX002 (ip), vehicle: Klucel (hydroxypropylcellulose) (HPC)",106 % of control
same,T/C,"dose: 200.0 mg/kg/injection, schedule: Q04DX002 (ip), vehicle: Klucel (hydroxypropylcellulose) (HPC)",106 % of control
same,T/C,"dose: 400.0 mg/kg/injection, schedule: Q04DX002 (ip), vehicle: Klucel (hydroxypropylcellulose) (HPC)",105 % of control
CC(=NC(C)C)Nc1ccc(Cl)cc1C,T/C,"dose: 50.0 mg/kg/injection, schedule: Q01DX009 (ip), vehicle: saline + Tween-80 + alcohol",101 % of control
same,T/C,"dose: 100.0 mg/kg/injection, schedule: Q01DX009 (ip), vehicle: saline + Tween-80 + alcohol",95 % of control
O=C(CCCCCCC(=O)ON1C(=O)CCC1=O)ON1C(=O)CCC1=O,T/C,[8],122 % of control
